According to patent US7939534B2, “Certain chemical entities, compositions, and methods” (Cytokinetics, Inc., priority 2006, dated 2011):

Molecular target: T1, chicken gizzard smooth muscle myosin subfragment-1 chemically crosslinked to either cardiac or skeletal actin (Gallus gallus, UniProt P10587)
T1 construct: chicken gizzard smooth muscle myosin subfragment-1; from tissue; host or cells: chicken gizzard
Assay: Dose dependent smooth muscle myosin ATPase modulation (pyruvate kinase/horseradish peroxidase/pyruvate oxidase-coupled ATPase assay)
Format: biochemical
Details: read-out: IC50 Arithmetic Mean
Outline: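 Chicken gizzard smooth muscle myosin S1 crosslinked (EDC/NHS) to cardiac or skeletal actin, concentration titrated to a set ATPase rate. Pyruvate kinase/pyruvate oxidase/HRP-coupled assay, 0.15 mM ATP, 12 mM K-PIPES pH 7.00, 100 mM KCl, amplex red fluorescence; IC50 from 4-parameter fit.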

Row | Molecule | IC50
1 | O=C(NCc1cccnc1)c1ccc(N2CCSCC2)nc1NCCc1cccc(F)c1 [Compound 121, (2-{[2-(3-fluorophenyl)ethyl]amino}-6-(1,4-thiazaperhydroin-4-yl)(3-pyridyl))-N-(3-pyridylmethyl)carboxamide] | 1.57 µM
2 | O=C(NCc1cccnc1)c1ccc(N2CCS(=O)(=O)CC2)nc1NCCc1cccc(F)c1 [Compound 122, (6-(1,1-dioxo(1,4-thiazaperhydroin-4-yl))-2-{[2-(3-fluorophenyl)ethyl]amino}(3-pyridyl))-N-(3-pyridylmethyl)carboxamide] | 29.9 µM
3 | CC(=O)N1CCN(c2ccc(C(=O)NCc3cccnc3)c(NCCc3cccc(F)c3)n2)CC1 [Compound 123, (6-(4-acetylpiperazinyl)-2-{[2-(3-fluorophenyl)ethyl]amino}(3-pyridyl))-N-(3-pyridylmethyl)carboxamide] | 8.57 µM
4 | O=C(NCc1cccnc1)c1ccc(N2CCC(N3CCCCC3)CC2)nc1NCCc1cccc(F)c1 [Compound 124, (2-{[2-(3-fluorophenyl)ethyl]amino}-6-(4-piperidylpiperidyl)(3-pyridyl))-N-(3-pyridylmethyl)carboxamide] | 29.7 µM
5 | CCOC(=O)N1CCN(c2ccc(C(=O)NCc3cccnc3)c(NCCc3cccc(F)c3)n2)CC1 [Compound 125, ethyl 4-(6-{[2-(3-fluorophenyl)ethyl]amino}-5-[N-(3-pyridylmethyl)carbamoyl]-2-pyridyl)piperazinecarboxylate] | 3.16 µM
6 | N-[((2R)-1-{4-[(tert-butoxy)carbonylamino]butanoyl}pyrrolidin-2-yl)methyl](5-fluoro-2-{[2-(3-fluorophenyl)ethyl]amino}-6-pyrrolidinyl(3-pyridyl))carboxamide [Compound 75] | 8.55 µM
7 | N-{[(2R)-1-(2-aminoacetyl)pyrrolidin-2-yl]methyl}(5-fluoro-2-{[2-(3-fluorophenyl)ethyl]amino}-6-pyrrolidinyl(3-pyridyl))carboxamide [Compound 76] | 0.212 µM
8 | N-{[(2R)-1-(4-aminobutanoyl)pyrrolidin-2-yl]methyl}(5-fluoro-2-{[2-(3-fluorophenyl)ethyl]amino}-6-pyrrolidinyl(3-pyridyl))carboxamide [Compound 74] | 0.308 µM
